From the METLIN SMRT retention time set (Domingo-Almenara et al. 2019) come the findings set out here.

A short description of the data set: gradient 5% acetonitrile 3 min, to 50% in 2 min, to 85% in 15 min, held 3 min, 100 µL/min. Conditions: column: Zorbax Extend-C18 2.1 x 50 mm; eluents: water / acetonitrile, 0.1% formic acid. In outline: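 The system's dead and dwell volumes were 40 μL and 900 μL, with a Zorbax Extend-C18 column (2.1 × 50 mm, 1.8 μm) run at 100 μL/min in water and acetonitrile containing 0.1% formic acid each. Pure standards were analyzed in mixtures of ~100 molecules by HPLC–quadrupole time-of-flight mass spectrometry in positive and negative ionization mode. Retention time was assigned from computationally picked, manually inspected adduct peaks.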
Consider `CCN(CC)C(=O)c1ccc2c(c1)nnn2CCNC(=O)Nc1ccc(Br)cc1F`, for which the RP-LC retention time came to 787 s.
The value for `Cc1ccc(-c2csc(NC(=O)c3c(-c4ccc(F)cc4)nc4n3CCS4(=O)=O)n2)cc1` was 1070 s; that for `Cc1csc2nc(-c3cccc(NC(=O)c4ccccc4[N+](=O)[O-])c3)cn12` was 667 s; that for `O=C(Cn1nc2nc(N3CCCC3)ccn2c1=O)Nc1ccc2c(c1)OCO2` was 647 s.
The value for `COc1ccc(OC)c(CNC(=O)C2CCN(c3cncnc3N3CCCCC3)CC2)c1` was 688 s.
In the case of `CC(C)Oc1ccc(-c2noc(CN3C(=O)C(C)Oc4ccccc43)n2)cc1` (stereo not drawn), the RP-LC retention time came to 1200 s.
The value for `Cc1ccc(-c2nc(-c3ccc4oc(C)nc4c3)no2)cc1` was 1180 s; that for `Cc1ncsc1C1N(C2CCN(C(=O)c3ccoc3)CC2)C(=O)C12CCCC2` (stereo not drawn) was 719 s; that for `O=C(Cn1cccc(S(=O)(=O)N2CCOCC2)c1=O)N1CCc2ccccc21` was 667 s.
The value for `Cc1cccc(-c2nnc(C)c(N3CCC(C)CC3)n2)c1` was 771 s; that for `CCOCCCNC(=O)C1CCN(S(C)(=O)=O)c2cc(Cl)ccc2O1` (stereo not drawn) was 783 s; that for `Cc1cc(C)cc(-c2nc(-c3ccc4c(c3)nnn4CCC(=O)N3CCCC3)no2)c1` was 1090 s.
The value for `CCCCS(=O)(=O)N1CCN(c2ccc(Nc3cc(C)ccn3)nn2)CC1` was 585 s.
Consider `COc1ccc(-n2ccn3cc(-c4ccc(F)cc4)nc3c2=O)cc1Cl`, for which the RP-LC retention time is 859 s.
The result for `CCc1ccc2[nH]c3c(c(=O)c2c1)CN(CC(=O)Nc1ccc(OC)c(Cl)c1)CC3` reads 636 s.
The result for `O=C(Nc1ccccc1F)N1CCN(Cc2nc3ccc(Cl)cc3o2)CC1` reads 745 s.
The result for `O=C(Nc1ccccc1)C1CCCN(S(=O)(=O)Cc2ccccc2)C1` (stereo not drawn) reads 940 s.
Compound `CCn1cc(-c2ccc(OC)cc2)cc1C(=O)N1CCC(C)CC1` yielded an RP-LC retention time of 1110 s.
`CCCc1nc2cccnc2n1C1CCN(C(=O)COc2ccccc2)C1` (stereo not drawn) registered an RP-LC retention time of 630 s.
The result for `Cc1ccc(OCC(=O)Nc2nnc(C3CC(=O)N(c4ccc(Cl)cc4)C3)o2)cc1` (stereo not drawn) reads 788 s; that for `CN1CCN(C(=O)C(=O)Nc2c3c(nn2-c2ccc(Cl)cc2)CSC3)CC1`, 634 s; that for `Cc1ccccc1S(=O)(=O)N1[C@H]2CC[C@@H]1c1cnc(-c3ccccc3)nc1C2`, 1140 s.
The compound `Cc1ccn2c(Nc3ccc4c(c3)OCCO4)c(-c3ccccc3)nc2c1` registered an RP-LC retention time of 690 s.
The value for `Cc1ccc(-c2noc(C3CC3)n2)cc1S(=O)(=O)N1CCC(C(=O)Nc2nccs2)CC1` was 937 s; that for `CCCN1C(=O)Cc2ccccc2C1C(=O)NCc1cccs1` (stereo not drawn) was 758 s; that for `Cc1c(-c2noc(-c3ccc4cc[nH]c4c3)n2)nnn1Cc1cccc(F)c1` was 996 s.
Compound `c1ccc(CNc2cc(-n3cccn3)ncn2)cc1` had an RP-LC retention time of 832 s.
In turn, `Cc1sc(NC(=O)C2CCCCC2)nc1-c1ccc2c(c1)NC(=O)CO2` had an RP-LC retention time of 921 s.
The result for `CCC(C)NC(=O)Cn1nc2c3cc(-c4ccc(Cl)cc4)nn3ccn2c1=O` (stereo not drawn) reads 868 s; that for `COc1ccc(-c2nc(N3CCOCC3)c3sc(CN(C)c4ncc(C(=O)NO)cn4)cc3n2)cn1`, 674 s.
For `CCn1ccc2c(cc(C(=O)Nc3ccc(OC)cc3OC)n2C)c1=O`, the RP-LC retention time came out at 692 s.
In turn, `Cc1ccc(CNC(=O)C2(C)CCCN(C(=O)Nc3cc(C)cc(C)c3)C2)cc1` (stereo not drawn) showed an RP-LC retention time of 912 s.
The result for `Cc1cnc(-c2ccccc2)n1CCNS(=O)(=O)c1ccc(C#N)cc1` reads 634 s.
Consider `COc1ccc(C2(C(=O)Nc3cc(-c4cccnc4)no3)CC2)cc1`, for which the RP-LC retention time was 816 s.
The value for `Cc1cccc(NC(=O)C2CCN(S(=O)(=O)c3cc(C(=O)N4CCCCCC4)cs3)CC2)n1` was 769 s; that for `Cc1nnc(-c2cc(C)n(CC(=O)Nc3ccc(Br)cc3C)c2C)o1` was 847 s.
For the compound `Cc1c(Cl)cccc1NS(=O)(=O)c1cc2c(s1)CCN(C(=O)C1CCC1)C2`, the RP-LC retention time was determined as 916 s.
The value for `Cc1ccc(CNC(=O)c2nnc(-c3ccc(S(=O)(=O)N4CCC(C)CC4)cc3)o2)cc1` was 1100 s; that for `Cc1nnc(NC(=O)CSc2nnc(C3COc4ccccc4O3)o2)s1` (stereo not drawn) was 699 s.
`Cc1oc2ccn(Cc3cccc(F)c3)c(=O)c2c1C(=O)NCc1ccccc1F`: the RP-LC retention time was determined as 1060 s.
The result for `O=c1c2cc(-c3ccc(F)cc3)nn2ccn1Cc1nc(-c2cccc(Br)c2)no1` reads 1150 s; that for `CCCn1nc(CNC(=O)c2ccc(C#N)cc2)c2ccccc21`, 844 s; that for `CCOc1ccc(NC(=O)c2oc3cc(C)ccc3c2C)c2cccnc12`, 753 s.
The result for `O=C(NC1CC1)[C@@H]1C[C@H](Oc2ccccc2)CN1C(=O)CCCc1c[nH]c2ccccc12` reads 834 s; that for `O=C(CCCS(=O)(=O)c1ccc(F)cc1)Nc1cccc(Cl)c1Cl`, 850 s.
The result for `CC1(C)CC(=O)c2cn(-c3ccccc3)c(=O)c(C(=O)NC3CCCC3)c2C1` reads 932 s.
For the compound `CCn1cc2c3c(cccc31)CN(C(=O)Nc1cccc(Cl)c1F)CC2`, the RP-LC retention time turned out to be 1060 s.
The value for `O=C(CCc1nc(CSc2nnc(-c3ccccc3)o2)no1)Nc1ccc(F)cc1` was 892 s.
`Cc1noc(-c2cc(=O)n(CC(=O)NCc3ccccc3Cl)c3ccccc23)n1`: the RP-LC retention time turned out to be 866 s.
The compound `N#CCc1nc(-c2cc3ccccc3o2)cs1` yielded an RP-LC retention time of 860 s.
As to `Nc1cc(=O)nc(SCC(=O)Nc2nc(-c3ccccc3)cs2)n1-c1ccccc1`, the RP-LC retention time was found to be 727 s.
The result for `CCOc1ccc(NC(=O)C2CCCN(c3nnc4cccc(C)n34)C2)cc1` (stereo not drawn) reads 724 s; that for `CC(C(=O)N1CCC(N2CCc3ccccc32)CC1)c1ccccc1` (stereo not drawn), 1010 s.
The value for `Cc1cccn2c(Nc3ccc4c(c3)OCCO4)c(-c3ccc(Cl)cc3)nc12` was 747 s; that for `O=C1NCCN2CC3(CCN(S(=O)(=O)c4cccc5cccnc45)CC3)CC12` (stereo not drawn) was 581 s; that for `CCCCNC(=O)CCCN1C(=O)CCn2nc(C)cc21` was 629 s.
The value for `COC(=O)c1cccc(NC(=O)NC(C(=O)N2CCc3ccccc32)C(C)C)c1` (stereo not drawn) was 610 s; that for `CC1CCN(C(=O)c2cn(-c3cc(-c4nc(C(C)(C)C)no4)ccn3)cn2)CC1` was 1060 s; that for `O=C(NCc1ccccc1OC(F)(F)F)c1ccc(N2CCOCC2)nn1` was 777 s.
In turn, `COc1ccc(NC(=O)c2noc3c2CCCC3)cc1OC` showed an RP-LC retention time of 842 s.
The value for `COc1ccc(-c2noc(Cn3ccn(-c4cccc(Cl)c4)c(=O)c3=O)n2)cc1` was 866 s; that for `COC(=O)c1cccc(Nc2c(-c3ccc(Cl)cc3)nc3cnccn23)c1` was 905 s; that for `CN(C)C(CNC(=O)Cc1cccs1)c1ccccc1Cl` (stereo not drawn) was 550 s.
On to `O=S(=O)(CCc1ccccc1)N1CCCn2nc(-c3cccs3)cc2C1`, for which the RP-LC retention time stood at 988 s.
In turn, `O=C(CCCc1nnc2c(=O)n(-c3ccc(F)cc3)ccn12)NCCc1c[nH]c2ccccc12` displayed an RP-LC retention time of 699 s.
`COc1ccccc1N1CCN(C(=O)CCc2nnc3c4cc(-c5ccccc5)nn4ccn23)CC1` came in with an RP-LC retention time of 763 s.
The result for `Cc1ccc(-c2nc3nc(C)cc(C)n3c2Nc2ccccc2C)cc1` reads 782 s.
`Cc1ccc(C)c(N2CCN(C(=O)c3[nH]c(C)c(S(=O)(=O)N4CCCC4)c3C)CC2)c1` registered an RP-LC retention time of 1020 s.
The compound `CC(C)Cn1cc(CCNC(=O)Nc2ccc(Cl)cc2)c2cccnc21` registered an RP-LC retention time of 889 s.
In turn, `Cc1ccsc1C(=O)N1CCN(C(=O)c2cc(-c3ccccn3)n[nH]2)CC1` gave an RP-LC retention time of 631 s.
Consider `CC(NC(=O)c1ccc2c(c1)nc1n2CCN(Cc2ccccc2)C1=O)c1cccnc1` (stereo not drawn), for which the RP-LC retention time turned out to be 616 s.
The result for `CCOc1cccc(=O)c2c(C)n(-c3nc(-c4ccc(OC)cc4)c(C)s3)c(C)c12` reads 1160 s; that for `O=C(NC1CCCC1)N1CCC(c2noc(-c3ccccc3)n2)C1` (stereo not drawn), 868 s; that for `CCc1ccc(C2=C(C)C(N3CCC(C(=O)NCCN4CCCC4)CC3)=NS2(=O)=O)cc1`, 671 s.
The value for `Cc1nc2c([nH]1)CCN(C(=O)c1ccc(NC(=O)c3ccccc3-c3ccccc3)cc1)c1ccccc1-2` was 795 s; that for `CCOc1cc(=O)n2c(c1C(=O)Nc1cc(Cl)ccc1OC)CCCC2` was 854 s.
Turning to `CSc1ccc(NC(=O)NC2CCN(c3cc(C)cc(C)c3)C2=O)cc1` (stereo not drawn), the RP-LC retention time is 916 s.
The value for `O=C(CC1CCCC1)N1CCCC(c2nn[nH]n2)C1` (stereo not drawn) was 660 s.
